Results on two molecules are retold here after patent US7951232B2, “Surface coating compositions and methods” (Elevance Renewable Sciences, Inc., priority 2006, dated 2011).

Test [1] deals with Escherichia coli 0157:H7 ATCC 43895. In words: MIC and MBC determination in Mueller-Hinton Broth. The settings on record: 37±2° C., 20-24 hours. The format is cell-based. On the procedure:
Efficacy of 9-decenoic acid and the methyl ester of 9-decenoic acid against Pseudomonas aeruginosa ATCC 15442, Escherichia coli 0157:H7 ATCC 43895 and Candida albicans ATCC 10231 was measured through the determination of the minimum inhibitory concentration (MIC) and minimum bacteriocidal concentration (MBC) using the procedures in the Federal Register, June 1994 and the present NCCLS M11-A4 protocol.
Stock cultures of each organism were transferred onto Mueller-Hinton Agar (MHA) plates and incubated for 24±2 hours at 37±2° C. On the day of the test, the top of at least three to five well-isolated colonies were transferred via wire loop to a tube containing 4 to 5 ml of Trypticase Soy Broth (TSB). The TSB culture was incubated for 2 to 6 hours and turbidity was adjusted with sterile saline to achieve the turbidity of the 0.5 McFarland Standard.
The concentrated 9-decenoic acid was diluted 1:40 in Mueller-Hinton Broth (MHB) to yield a 2.5% stock solution. The test solution of the methyl ester of 9-decenoic acid was formulated in the same manner. For each organism, 12 dilutions of the 9-decenoic acid and the methyl ester of 9-decenoic acid in MHB were prepared ranging from 0.2500 to 0.0005%. A 2-ml aliquot of appropriately diluted 9-decenoic acid or the methyl ester of 9-decenoic acid solution was placed in each tube. Each tube was inoculated with 0.05 ml of a 1:10 dilution of one challenge organism. Tubes were incubated at 37±2° C. for 20-24 hours and observed for growth or no growth. […] Controls were run for sterility, viability and organism confirmation. It was determined that all cultures were viable and pure.
The MBC was defined as the concentration of 9-decenoic acid or the methyl ester of 9-decenoic acid that completely eradicated viable organisms from the test system.

Test [2] has as its system Pseudomonas aeroginosa, ATCC 15442. In words: Time-Kill Procedure (ASTM), rate of kill. The format is cell-based, Pseudomonas aeruginosa. The settings on record: all concentrations (0.01, 0.05 and 0.1%), after 10 minutes. On the procedure:
(§1) The rate of kill for these organisms upon exposure to 9-decenoic acid was determined using the American Society for Testing and Materials (ASTM) procedure entitled “Standard Test Method for the Assessment of Microbiocidal Activity of Test Materials Using a Time-Kill Procedure”, October 1998. This procedure incorporates the recommendations described in the “Manual of Clinical Microbiology,”5th ed., edited by A. B. Balows et al., ASM, Washington, and is directed by the Federal Register, June 1994.
(§2) Stock cultures were transferred into TSB and incubated for 18-24 hours at 37±2° C. A second transfer was made onto TSA plates and were incubated for 18-24 hours at 37±2° C. The plates were removed from incubation and the bacterial growth washed from the agar surface using Butterfield's Phosphate Buffered Dilution Water (PBDW). The bacterial suspension was adjusted to contain approximately 10^8 Colony Forming Units (CFU)/ml with PBDW using spectrophometric methods extant in the laboratory.
(§3) The concentrated 9-decenoic acid was diluted 1:40 in filter sterilized isopropanol to yield a 2.5% stock solution. Subsequent dilutions to the 9-decenoic acid stock solutions were made with sterile Deionized Water (DI) to achieve concentrations of 0.1%, 0.05%, 0.01%, and 0.001%. The pH was determined for each dilution; pH values ranged from 4.4-4.1. Additionally, the 9-decenoic acid stock solution was adjusted to pH 7 with 1 N NaOH and serially diluted with sterile DI to achieve concentrations of 1.0%, 0.75% and 0.5%.
(§4) Compliant with the ASTM procedure cited, for each challenge microorganism a 9.9 ml aliquot of the prepared 9-decenoic acid suspension was added to a sterile tube. A 0.1 ml aliquot of the standardized inoculum was added to the 9-decenoic acid solution representing the start of the test exposure. The inoculated 9-decenoic acid solution was immediately mixed thoroughly. The inoculated suspension was held at room temperature for 0.5, 2, 5, 7 and 10 minute exposure times for tests run at ˜pH 4. The pH 7 tests were held at room temperature for 0.5 and 2 minutes.
(§5) At each exposure sample time, a 1.0 ml aliquot of the inoculated 9-decenoic acid suspension was transferred to 9.0 ml of D/E Neutralizing Broth. Additional ten-fold serial dilutions were made in PBDW and plated in duplicate on TSA. All plates were incubated for 48 hours at 37±2° C. and visually examined for growth. The plates are enumerated, recorded and log kill determined for each time point.
(§6) The following study controls were conducted: culture purity, neutralizer sterility, initial suspension population, test population, neutralization verification and a negative control using isopropanol. Culture purity was verified by performing a streak plate for isolated colonies on the each culture used. All cultures were determined to be pure based on consistent colony morphology typical for the test organism. The neutralizer sterility was confirmed by no growth in an incubated sample.
(§7) The population of the initial and test culture were determined by serial dilution, plating and enumerating after incubation. The initial suspension were determined to be ≧10^4 CFU/ml. The test culture population was used for calculation of the log reduction achieved at each time point.
(§8) Neutralization effectiveness was verified by a filtration test. For each organism, four tubes were prepared with 9 ml D/E Neutralizing Broth and fewer than 100 CFU/ml of the organism. A 1.0 ml aliquot of prepared 9-decenoic acid was added to each tube. Immediately, the entire contents of 2 tubes were filtered through a filtration apparatus and rinsed with sterile diluent. The remaining 2 tubes were held at room temperature for 30 minutes and then the entire contents were filtered using the same procedure. The filters were aseptically transferred to TSA plates and incubated for 48 hours at 37±2° C. and visually examined for growth.
(§9) This control was inoculated, subcultured and incubated as in the test procedure.

In test [3] the test system is Candida albicans, ATCC 10231. In words: Time-Kill Procedure (ASTM), rate of kill. The format is cell-based. The settings on record: all concentrations (0.01, 0.05 and 0.1%), after 10 minutes. On the procedure:
as §1, §2, §3, §4, §5, §6, §7, §8, §9

Test [4] relates to Escherichia coli 0157:H7, ATCC 43895. In words: Time-Kill Procedure (ASTM), rate of kill. Type of test: cell-based. The settings on record: all concentrations (0.01, 0.05 and 0.1%), after 10 minutes. As to the method: as §1, §2, §3, §4, §5, §6, §7, §8, §9
For test [5], the system named is Aureobasidium pullulans ATCC 12536. In words: Dry film preservative test, growth on PDA agar surface. The format is cell-based. The settings on record: 0.5% in PDA agar. As to the method: (§10) The efficacy of 9-decenoic acid and the methyl ester of 9-decenoic acid as a dry film preservative was determined through the incubation of Trichoderma virens ATCC 9645, Cladosporium cladosporiodes ATCC 16022 and Aureobasidium pullulans ATCC 12536 in the presence of varying concentrations of 9-decenoic acid or the methyl ester of 9-decenoic acid on an agar surface.
(§11) Fungal spores were hydrated overnight in 0.1% Tween 80 and then plated on Potato Dextrose Agar (PDA) and incubated at 25-30° C. for 6 days. The spores were washed from the surface with 5 mls of 0.1% Tween 80 and enumerated.
(§12) PDA plates with prepared according to the manufactures instructions through sterilization. The agar was tempered to approximately 50° C. and filter sterilized 9-decenoic acid was added to achieve concentrations of 0.1, 0.5 and 1.0% in the agar. Additionally, one concentration of the methyl ester of 9-decenoic acid (0.5%) was also prepared. The agar was thoroughly mixed and poured into sterile petri plates and allowed to solidify.
(§13) The agar plates were inoculated with the spore solution to achieve 10^2 spores/plate. The plates were incubated at 25-30° C. in Ziploc bags with a wet paper towel to keep the moisture level high. The plates were examined for growth after 4, 7, 16, 24 and 31 days. The percent coverage of growth on the agar surface was recorded at each sample point.

The test system of test [6] is Cladosporium cladosporiodes ATCC 16022. The description is as above. The settings on record: 0.5% in PDA agar. Type of test: cell-based. On the procedure: as §10, §11, §12, §13
Test [7] has as its system Trichoderma virens ATCC 9645. The description is as above. The format is cell-based. The conditions noted are these: 0.5% in PDA agar. As to the method: as §10, §11, §12, §13
In test [8] the test system is Bacillus licheniformis ATCC 14580. In words: Growth inhibition in MRS medium (OD600). Type of test: cell-based. The conditions noted are these: 0.075% w/v 9-DA from K9-DA, pH not adjusted, listed as potassium 9-DA. On the procedure: (§14) Efficacy of the potassium salt of 9-DA was determined through incubation of the following organisms in the presence of varying concentrations of the potassium salt: Pseudomonas straminea ATCC 33636, Bacillus subtilis ATCC 6051, Bacillus licheniformis ATCC 14580, Bacillus cereus ATCC 14579, Pediococcus acidilactici ATCC 8042, and Lactobacillus casei ATCC 334.
(§15) Stock cultures of each organism were transferred into MRS liquid medium. MRS medium (Difco 288130) was purchased from Becton, Dickinson and Company, Sparks, Md.
(§16) The efficacy of different levels of the potassium salt of 9-DA was tested depending on the organism to inhibit the growth of various microorganisms indicated above.
(§17) The selected organisms were incubated overnight in 5 ml of MRS medium at 35° C. and 250 rpm. MRS media with K-9-DA was prepared, along with a control of straight media (no antimicrobial added). The concentrated antimicrobial agents were diluted with the appropriate media required for the respective microorganisms, to reach the required concentrations for the studies as indicated below. The antimicrobial agents were added by weight/volume percent on an ‘as 9-DA’ basis to the media. The purity of the antimicrobial agent (99% for K-9-DA) was taken into account. The pH of the medium was not adjusted. The target for initial cell density was 10^5 to 10^6 cfu/ml. […] OD600 readings were taken at 0, 4, 17, 23 and 47 hours. […]

Test [9] deals with microorganisms of Table 15 with the exception of Bacillus licheniformis. In words: Growth inhibition in MRS medium (OD600), summary over organisms. The format is cell-based. The conditions noted are these: all concentrations tested. As to the method: as §14, §15, §16, §17
The subject of test [10] is Pediococcus acidolactici ATCC 8042. In words: Growth inhibition in MRS medium at various pH levels (OD600). Type of test: cell-based, Pediococcus acidilactici. The conditions noted are these: 0.05% w/v (as 9-DA). As to the method: (§18) Efficacy of potassium salt of 9-DA were tested at various pH levels against the following: Bacillus cereus ATCC 14579, Pediococcus acidolactici ATCC 8042, Pseudomonas straminea ATCC 33636, and Lactobacillus casei ATCC 334. Stock cultures of each organism were transferred into MRS liquid medium. MRS medium (Difco 288130) was purchased from Becton, Dickinson and Company, Sparks, Md. The efficacy of the potassium salt of 9-DA (K-9-DA) was tested at different concentrations and pH levels, including 6.75 (unadjusted), 7.5, and 8.5. The selected organisms were incubated overnight in 5 ml of MRS medium at 35° C. and 250 rpm. MRS media with K-9-DA was prepared, along with a control of straight media (no antimicrobial added). The antimicrobial agent was added by weight/volume percent to the media. The purity, 99% for K-9-DA, was taken into account. The pH adjustments to 7.5 and 8.5 were done with 50% potassium hydroxide. Filter sterilization was used instead of autoclaving to prevent adverse chemical reactions at higher pH and temperature. The target for initial cell density was 10^5 to 10^6 cfu/ml. According to the McFarland standard, 0.01 OD600 is equivalent to approximately 10^8 cfu/ml. To achieve the proper dilution, 30 μl of overnight culture diluted to 0.01 OD600 was added to the 3 ml of media in each tube. The tubes were incubated at 35° C. with the exception of Pseudomonas strains which were incubated at 30° C. Treatments were all done in duplicate. All strains were shaken at 250 rpm, with the exception of Lactobacillus (because it is anaerobic). OD600 readings were taken at 0, 19, 25.5, 42.5 and 49 hours.
“Percent reduction in growth vs. control” was defined as (1−abs. of treatment/abs. of control)×100.

The test system of test [11] is Lactobacillus casei ATCC 334. The test is described as above. The format is cell-based. The conditions noted are these: 0.075% w/v (as 9-DA). On the procedure:
as §18, with “The tubes were incubated at 35° C. with the exception of Pseudomonas strains which were incubated at 30° C. Treatments were all done in duplicate. All strains were shaken at 250 rpm, with the exception of Lactobacillus (because it is anaerobic).” left out, “hours. […]” for “hours.”

In turn, `C=CCCCCCCCC(=O)OC` [Methyl ester of 9-decenoic acid, methyl ester of 9-decenoic acid] had an MIC in [1] (Mueller-Hinton Broth) of 0.1250%. For the same molecule, the MBC in test [1] (no-growth tubes subcultured on TSA) was determined as 0.1250%. Also, the “log reduction in time kill test” value in test [2], in test [3] and in [4] was below 1 log each time. Besides, the “time up to which growth of the culture was significantly inhibited” value in test [5] worked out at 16 days; in [6], 4 days; in test [7], 4 days. Besides, the “Percentage coverage of agar surface” value in test [5] (4 days) is given as 0%; in [5] (7 days), 2.5%; in test [5] (16 days), 10%; in test [5] (24 days), 50%; in [5] (31 days), 75%; in test [6] (4 days), 10%. Besides, the “Percentage coverage of agar surface” value in test [6] (7 days) is 50%; in [6] (16 days), 50%; in test [6] (24 days) it was 50%; in test [6] (31 days), 50%; in test [7] (4 days), 60%; in test [7] (7 days), 95%. Further, the “Percentage coverage of agar surface” value in [7] (16 days), in test [7] (24 days) and in [7] (31 days) was 100% in each case.
Regarding `C=CCCCCCCCC(=O)O.[K]` [K9-DA, Potassium-9 Decenoic Acid], the “% reduction in growth vs. control” value was 88.63% in [8]; 90.6% in test [10] (Non-pH adjusted (6.75)); 93.2% in [10] (pH 7.5); 95.6% in [10] (pH 8.5); 88.4% in test [11] (Non-pH adjusted (6.75)); 91.7% in test [11] (pH 7.5). Also, the “reduction in growth when compared to controls” value in [9] is at least 95%.
